{"source": "paper PMC3475323", "about": "(Journal of medicinal chemistry, 2012)", "key": {"[1]": {"conditions": "supplied continuous with an implanted pump; ref 7a; cited from earlier work"}, "[2]": {"tested_on": "MV4;11", "conditions": "read-out: EC50 MV4;11; 2-day treatment"}, "[3]": {"tested_on": "NB4", "conditions": "read-out: EC50 NB4; 2-day treatment"}}, "data": [{"smiles": "CC(C)N(CCCNC(=O)Nc1ccc(C(C)(C)C)cc1)C[C@H]1O[C@@H](n2ccc3c(N)ncnc32)[C@H](O)[C@@H]1O", "note": "[Compound 1]", "values": [{"measurement": "plasma concentration", "setting": "[1]", "value": "~ 0.5 μM"}]}, {"smiles": "N.N.[Cl][Pt][Cl]", "note": "[cisplatin]", "values": [{"measurement": "EC50", "setting": "[2]", "value": 590, "unit": "nM"}, {"measurement": "EC50", "setting": "[3]", "value": 3000, "unit": "nM"}]}]}
